As a reminder, the inhibition is the percentage by which the read-out fell short of the control.

In test [1] the test system is TNF-α. The test can be described thus: Cell-based TNF-α inhibition assay (LPS-induced PBMCs, Meso Scale). The note with it: PBMC, PBMCs pretreated 1 h, LPS 100 ng/mL 18-24 h, percentage of stimulated DMSO control; for inhibition at 0.1 µM: compound concentration 0.1 μM; for inhibition at 1 µM: compound concentration 1 μM. In outline: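 Thawed primary PBMCs (200,000 cells/well, RPMI 1640 with 10% FBS) were pretreated with compound for 1 h, then stimulated with 100 ng/mL LPS for 18–24 h. Supernatant TNF-α was measured by Meso Scale, and activity was expressed as percent inhibition relative to the stimulated DMSO control.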

For test [2], the target named is T1, PDE4B (Homo sapiens, UniProt Q07343).
T1 construct: endogenous in cells; host or cells: A549
Put plainly: Protein degradation assay, western blot, PDE4B in A549 cells. The test is classed as cell-based. The note with it: 24 h treatment, 'as high as about' = upper value for the group, read-out: PDE4B degradation relative to DMSO. The method, then: Example B2. Protein Degradation Assay
A549 cells were grown in RPMI 1640 media supplemented with 10% fetal bovine serum, streptomycin, and penicillin. The cells were plated in 6-well plates at 300,000 cells/well in the growth media. After overnight incubation, the cells were treated with DMSO (control) or a compound at predetermined concentrations (e.g., 10 nM, 100 nM, 1 μM, 3 μM, or 10 μM) for 24 h at 37° C. under 5% CO2. Whole cell extracts were prepared using an immunoprecipitation (IP) lysis buffer. The cells were washed once in PBS, and the cell pellets were resuspended in the IP lysis buffer and incubated for 15 min on ice. Cells debris was removed by centrifugation and the cleared whole cell lysates were transferred to new tubes for further analysis.
For a western blot analysis, the whole cell protein extracts were separated on 4-12% SDS-polyacrylamide gels, transferred to nitrocellulose, and probed with primary antibodies. Membranes were subsequently washed and probed with IRDYE® secondary antibodies. The signals were detected using an ODYSSEY® Imaging System. The antibodies used in the assay included anti-PDE4B antibody; anti-PDE4D antibodies (top, bottom, and short isoform); β-actin mouse monoclonal antibody; IRDYE® 680RD goat anti-rabbit antibody; and IRDYE® 800CW goat anti-mouse antibody. The compounds provided herein are PDE4 protein degraders.
(In general: A western blot detects proteins with antibodies after separation by electrophoresis.)

T1 sequence (Q07343 whole entry): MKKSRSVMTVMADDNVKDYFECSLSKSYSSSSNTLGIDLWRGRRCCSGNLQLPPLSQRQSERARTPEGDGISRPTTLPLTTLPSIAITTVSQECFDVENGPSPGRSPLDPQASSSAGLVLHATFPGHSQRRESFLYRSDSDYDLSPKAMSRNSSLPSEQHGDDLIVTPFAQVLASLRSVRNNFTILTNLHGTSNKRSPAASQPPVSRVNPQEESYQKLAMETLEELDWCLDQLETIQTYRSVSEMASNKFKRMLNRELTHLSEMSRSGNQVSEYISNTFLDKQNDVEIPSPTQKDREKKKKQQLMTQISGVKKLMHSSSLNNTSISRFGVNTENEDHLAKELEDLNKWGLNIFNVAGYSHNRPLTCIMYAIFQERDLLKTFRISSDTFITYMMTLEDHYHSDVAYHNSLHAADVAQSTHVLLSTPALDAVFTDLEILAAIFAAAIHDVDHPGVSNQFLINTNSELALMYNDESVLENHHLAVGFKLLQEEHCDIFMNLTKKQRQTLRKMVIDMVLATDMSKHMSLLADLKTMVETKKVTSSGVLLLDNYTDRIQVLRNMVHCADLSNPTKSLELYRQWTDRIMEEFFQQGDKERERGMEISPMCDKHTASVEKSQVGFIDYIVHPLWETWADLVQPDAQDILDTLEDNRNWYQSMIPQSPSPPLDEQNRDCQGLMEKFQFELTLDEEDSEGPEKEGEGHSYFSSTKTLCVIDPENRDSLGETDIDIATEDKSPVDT

As for `CCOc1cc([C@@H](CS(C)(=O)=O)N2C(=O)c3cccc(NC(=O)CCCCCCCCC4CCN(c5cccc6c5C(=O)N(C5CCC(=O)NC5=O)C6=O)CC4)c3C2=O)ccc1OC` (stereo partly drawn) [Compound A15, 9-{1-[2-(2,6-Dioxopiperidin-3-yl)-1,3-dioxo-2,3-dihydro-1H-isoindol-4-yl]piperidin-4-yl}-N-{2-[(1S)-1-(3-ethoxy-4-methoxyphenyl)-2-methanesulfonylethyl]-1,3-dioxo-2,3-dihydro-1H-isoindol-4-yl}nonanamide], in test [1], the inhibition at 0.1 µM was in the range of 40 to 60% and the inhibition at 1 µM was no less than 60%. For the same compound, in test [2], the Dmax was no more than 70%.

In the case of `CCOc1cc([C@@H](CS(C)(=O)=O)N2C(=O)c3cccc(NC(=O)CCCCCCCCN4CCC(C#Cc5cc6c(cc5F)C(=O)N(C5CCC(=O)NC5=O)C6)CC4)c3C2=O)ccc1OC` (stereo partly drawn) [Compound A20, 9-(4-{2-[2-(2,6-Dioxopiperidin-3-yl)-6-fluoro-1-oxo-2,3-dihydro-1H-isoindol-5-yl]ethynyl}piperidin-1-yl)-N-{2-[(1S)-1-(3-ethoxy-4-methoxyphenyl)-2-methanesulfonylethyl]-1,3-dioxo-2,3-dihydro-1H-isoindol-4-yl}nonanamide], in test [1], the inhibition at 0.1 µM is no less than 60% and the inhibition at 1 µM is no less than 60%. In addition, the Dmax in test [2] is no more than 70%.

On to `CCOc1cc([C@@H](CS(C)(=O)=O)N2C(=O)c3cccc(NC(=O)CCCCCCCN4CCC(c5cc6c(cc5F)C(=O)N(C5CCC(=O)NC5=O)C6)CC4)c3C2=O)ccc1OC` (stereo partly drawn) [Compound A22, 8-{4-[2-(2,6-Dioxopiperidin-3-yl)-6-fluoro-1-oxo-2,3-dihydro-1H-isoindol-5-yl]piperidin-1-yl}-N-{2-[(1S)-1-(3-ethoxy-4-methoxyphenyl)-2-methanesulfonylethyl]-1,3-dioxo-2,3-dihydro-1H-isoindol-4-yl}octanamide], for which, in test [1], the inhibition at 0.1 µM was no less than 60% and the inhibition at 1 µM is no less than 60%. For the same compound, the Dmax in test [2] was no more than 70%.

Regarding `CCOc1cc([C@@H](CS(C)(=O)=O)N2C(=O)c3cccc(NC(=O)CC4CN(Cc5ccc(OCc6scc7c6CN(C6CCC(=O)NC6=O)C7=O)cc5)CCO4)c3C2=O)ccc1OC` (stereo partly drawn) [Compound A40, 2-{4-[(4-{[5-(2,6-Dioxopiperidin-3-yl)-4-oxo-4H,5H,6H-thieno[3,4-c]pyrrol-1-yl]methoxy}phenyl)methyl]morpholin-2-yl}-N-{2-[(1S)-1-(3-ethoxy-4-methoxyphenyl)-2-methanesulfonylethyl]-1,3-dioxo-2,3-dihydro-1H-isoindol-4-yl}acetamide], in test [1], the inhibition at 0.1 µM is no less than 60% and the inhibition at 1 µM was no less than 60%. The Dmax in test [2] is no more than 70%.

As to `CCOc1cc([C@@H](CS(C)(=O)=O)N2C(=O)c3cccc(NC(=O)CCOCCOCCNCc4ccc(OCc5scc6c5CN(C5CCC(=O)NC5=O)C6=O)cc4)c3C2=O)ccc1OC` (stereo partly drawn) [Compound A41, 3-[2-(2-{[(4-{[5-(2,6-Dioxopiperidin-3-yl)-4-oxo-4H,5H,6H-thieno[3,4-c]pyrrol-1-yl]methoxy}phenyl)methyl]amino}ethoxy)ethoxy]-N-{2-[(1S)-1-(3-ethoxy-4-methoxyphenyl)-2-methanesulfonylethyl]-1,3-dioxo-2,3-dihydro-1H-isoindol-4-yl}propanamide], in test [1], the inhibition at 0.1 µM lay within 40 to 60% and the inhibition at 1 µM was no less than 60%. For the same compound, the Dmax in test [2] is no more than 70%.

For the compound `CCOc1cc([C@@H](CS(C)(=O)=O)N2C(=O)c3cccc(NC(=O)CCCc4ccc(CCNCc5ccc(OCc6scc7c6CN(C6CCC(=O)NC6=O)C7=O)cc5)cc4)c3C2=O)ccc1OC` (stereo partly drawn) [Compound A42, 4-[4-(2-{[(4-{[5-(2,6-Dioxopiperidin-3-yl)-4-oxo-4H,5H,6H-thieno[3,4-c]pyrrol-1-yl]methoxy}phenyl)methyl]amino}ethyl)phenyl]-N-{2-[(1S)-1-(3-ethoxy-4-methoxyphenyl)-2-methanesulfonylethyl]-1,3-dioxo-2,3-dihydro-1H-isoindol-4-yl}butanamide], in test [1], the inhibition at 0.1 µM is no less than 60% and the inhibition at 1 µM was no less than 60%. Further, the Dmax in test [2] is no more than 70%.

Take `CCOc1cc([C@@H](CS(C)(=O)=O)N2C(=O)c3cccc(NC(=O)CCCCCCCCCCNCc4ccc(OCc5scc6c5CN(C5CCC(=O)NC5=O)C6=O)cc4)c3C2=O)ccc1OC` (stereo partly drawn) [Compound A43, 11-{[(4-{[5-(2,6-Dioxopiperidin-3-yl)-4-oxo-4H,5H,6H-thieno[3,4-c]pyrrol-1-yl]methoxy}phenyl)methyl]amino}-N-{2-[(1S)-1-(3-ethoxy-4-methoxyphenyl)-2-methanesulfonylethyl]-1,3-dioxo-2,3-dihydro-1H-isoindol-4-yl}undecanamide]: in test [1], the inhibition at 0.1 µM was no less than 60% and the inhibition at 1 µM was no less than 60%. Moreover, the Dmax in test [2] is no more than 70%.

In the case of `CCOc1cc([C@@H](CS(C)(=O)=O)N2C(=O)c3cccc(NCCCCCCCCCNCc4ccc(OCc5scc6c5CN(C5CCC(=O)NC5=O)C6=O)cc4)c3C2=O)ccc1OC` (stereo partly drawn) [Compound A44, 4-[(9-{[(4-{[5-(2,6-Dioxopiperidin-3-yl)-4-oxo-4H,5H,6H-thieno[3,4-c]pyrrol-1-yl]methoxy}phenyl)methyl]amino}nonyl)amino]-2-[(1S)-1-(3-ethoxy-4-methoxyphenyl)-2-methanesulfonylethyl]-2,3-dihydro-1H-isoindole-1,3-dione], in test [1], the inhibition at 0.1 µM is no less than 60% and the inhibition at 1 µM was no less than 60%. In test [2], the Dmax was no more than 70%.

Take `O=C1CCC(N2Cc3c(cc(F)cc3C3CCN(CCCCCCCOc4cc(C(=O)Nc5c(Cl)cncc5Cl)ccc4OC(F)F)CC3)C2=O)C(=O)N1` (stereo not drawn) [Compound B1, N-(3,5-Dichloropyridin-4-yl)-4-(difluoromethoxy)-3-((7-(4-(2-(2,6-dioxopiperidin-3-yl)-6-fluoro-1-oxoisoindolin-4-yl)piperidin-1-yl)heptyl)oxy)benzamide]: in test [1], the inhibition at 0.1 µM is less than 20% and the inhibition at 1 µM was less than 20%. In test [2], the Dmax was no more than 70%.

Regarding `O=C1CCC(N2Cc3c(NCCCOCCOCCOCCOc4ccc(C(=O)Nc5c(Cl)cncc5Cl)cc4OCC4CC4)cccc3C2=O)C(=O)N1` (stereo not drawn) [Compound B9, 3-(Cyclopropylmethoxy)-N-(3,5-dichloropyridin-4-yl)-4-(2-(2-(2-(3-((2-(2,6-dioxopiperidin-3-yl)-1-oxoisoindolin-4-yl)amino)propoxy)ethoxy)ethoxy)ethoxy)benzamide], in test [1], the inhibition at 0.1 µM was no less than 60% and the inhibition at 1 µM is no less than 60%. For the same compound, the Dmax in test [2] is no more than 70%.

As for `O=C1CCC(N2Cc3c(cc(F)cc3C3CCN(CCCCCCCOc4ccc(C(=O)Nc5c(Cl)cncc5Cl)cc4OCC4CC4)CC3)C2=O)C(=O)N1` (stereo not drawn) [Compound B10, 3-(Cyclopropylmethoxy)-N-(3,5-dichloropyridin-4-yl)-4-((7-(4-(2-(2,6-dioxopiperidin-3-yl)-6-fluoro-1-oxoisoindolin-4-yl)piperidin-1-yl)heptyl)oxy)benzamide], in test [1], the inhibition at 0.1 µM was in the range of 20 to 40% and the inhibition at 1 µM was no less than 60%. The Dmax in test [2] was no more than 70%.

Turning to `O=C1CCC(N2Cc3c(cc(F)cc3C3CCN(CCCOc4cc(C(=O)Nc5c(Cl)cncc5Cl)ccc4OC(F)F)CC3)C2=O)C(=O)N1` (stereo not drawn) [Compound B11, N-(3,5-Dichloropyridin-4-yl)-4-(difluoromethoxy)-3-(3-(4-(2-(2,6-dioxopiperidin-3-yl)-6-fluoro-1-oxoisoindolin-4-yl)piperidin-1-yl)propoxy)benzamide], in test [1], the inhibition at 0.1 µM is no less than 60% and the inhibition at 1 µM was no less than 60%. In test [2], the Dmax was no more than 70%.

For the compound `O=C1CCC(N2C(=O)c3cccc(N4CCC(CCCCCCCOc5cc(C(=O)Nc6c(Cl)cncc6Cl)ccc5OC(F)F)CC4)c3C2=O)C(=O)N1` (stereo not drawn) [Compound B14, N-(3,5-Dichloropyridin-4-yl)-4-(difluoromethoxy)-3-((7-(1-(2-(2,6-dioxo-piperidin-3-yl)-1,3-dioxoisoindolin-4-yl)piperidin-4-yl)heptyl)oxy)benzamide], in test [1], the inhibition at 0.1 µM was no less than 60% and the inhibition at 1 µM is no less than 60%. For the same compound, in test [2], the Dmax is no more than 70%.

Consider `O=C1CCC(N2Cc3cc(C4CCN(CCOc5cc(C(=O)Nc6c(Cl)cncc6Cl)ccc5OC(F)F)CC4)c(F)cc3C2=O)C(=O)N1` (stereo not drawn) [Compound B15, N-(3,5-Dichloropyridin-4-yl)-4-(difluoromethoxy)-3-(2-{4-[2-(2,6-dioxo-piperidin-3-yl)-6-fluoro-1-oxo-2,3-dihydro-1H-isoindol-5-yl]piperidin-1-yl}ethoxy)benzamide], for which, in test [1], the inhibition at 0.1 µM is no less than 60% and the inhibition at 1 µM is no less than 60%. In addition, in test [2], the Dmax is no more than 70%.

For the origin of these results see patent US20240124418A1 (BioTheryX, Inc., priority 2020, published 2024).
